Here are results for 36 compounds from patent publication US20170121344A1 (Siga Technologies, Inc., priority 2009, published 2017).

This assay concerns Dengue-2 (Strain New Guinea C). Description: Viral yield assay against Dengue-2 in Vero cells. It counts as cell-based, Dengue virus. The note with it: Dengue virus; for pEC50: read-out: Activity (EC50 class) against Dengue-2 Virus in Vero cells; for EC50: read-out: Activity (EC50 in μM) DENV-2. In short, it runs like this:
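Virus yield, titered on Vero cells from cultures harvested at 48 h post infection, gave the EC50. Cultures were infected at MOI 0.1 with dengue-2 and treated with compound or DMSO at 37° C. DENV-1 and DENV-4 were determined similarly.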

The mark [1] stands for this setting: Vero cells, MOI 0.1, harvested 48 hours post infection.
Setting [2] is: DENV2, viral yield assay, Vero cells, MOI 0.1, 48 hours post infection.

pEC50: −log10 of the molar value. Like-named read-outs stand apart in the source and are kept apart here.

Take `Nc1c(C(=O)Nc2ccccc2)sc2nc3c(cc12)CCCCC3` [Compound 217, 3-Amino-6,7,8,9-tetrahydro-5H-1-thia-10-aza-cyclohepta[f]indene-2-carboxylic acid phenylamide]: the pEC50 under setting [1] is below 4.60. Same read-out and setting: the result for `COc1ccc(Cl)cc1NC(=O)c1sc2nc3c(cc2c1N)CN(C)CC3` [Compound 37, 3-Amino-6-methyl-5,6,7,8-tetrahydro-thieno[2,3-b][1,6]naphthyridine-2-carboxylic acid (5-chloro-2-methoxy-phenyl)-amide] reads above 5.30. Still for that read-out and setting: the result for `COc1ccc(NC(=O)c2sc3nc4c(cc3c2N)CN(C(C)C)CC4)cc1` [Compound 23, 3-Amino-6-isopropyl-5,6,7,8-tetrahydro-thieno[2,3-b][1,6]naphthyridine-2-carboxylic acid (4-methoxy-phenyl)-amide] reads above 5.30.

For `CC1(C)Cc2nc3sc(C(=O)NCCCO)c(N)c3cc2CS1` [Compound 253, 3-Amino-7,7-dimethyl-7,8-dihydro-5H-1,6-dithia-9-aza-cyclopenta[b]naphthalene-2-carboxylic acid (3-hydroxy-propyl)-amide], the pEC50 (Vero, 48 h) was below 4.60. For `CCOc1ccc(-c2c3c(nc4sc(C(=O)Nc5nccs5)c(N)c24)CCCC3)cc1` [Compound 241, 3-Amino-4-(4-ethoxy-phenyl)-5,6,7,8-tetrahydro-thieno[2,3-b]quinoline-2-carboxylic acid thiazol-2-ylamide], the pEC50 under setting [1] was below 4.60. On to `COc1ccc(NC(=O)c2sc3nc(-c4ccc(Cl)cc4)ccc3c2N)cc1` [Compound 527, 3-amino-6-(4-chlorophenyl)-N-(4-methoxyphenyl)thieno[2,3-b]pyridine-2-carboxamide], for which, under setting [2], the EC50 was below 5 µM. For `Nc1c(C(=O)N2CCCCC2)sc2nc3c(cc12)CCCCC3` [Compound 191, (3-Amino-6,7,8,9-tetrahydro-5H-1-thia-10-aza-cyclohepta[f]inden-2-yl)-piperidin-1-yl-methanone], the pEC50 under setting [1] is below 4.60. Regarding `CC(=O)c1cnc2sc(C(=O)N(CCc3ccccc3)Cc3cccs3)c(C)c2c1` [Compound 390, 5-acetyl-3-methyl-N-phenethyl-N-(2-thienylmethyl)thieno[2,3-b]pyridine-2-carboxamide], under setting [2], the EC50 is below 5 µM. In the case of `COc1ccc(-c2cc(-c3ccccc3)nc3sc(C(=O)Nc4ccccc4)c(N)c23)cc1` [Compound 126, 3-Amino-4-(4-methoxy-phenyl)-6-phenyl-thieno[2,3-b]pyridine-2-carboxylic acid phenylamide], the pEC50 under setting [1] was below 4.60. Still for that read-out and setting: as for `COCc1cc(C)nc2sc3c(=O)[nH]nnc3c12` [Compound 76, 9-Methoxymethyl-7-methyl-3H-pyrido[3′,2′:4,5]thieno[3,2-d][1,2,3]triazin-4-one], the figure is 4.60 to 5.30.

Turning to `NC(=O)c1sc2nc(C3CC3)cc(-c3ccccc3)c2c1N` [Compound 8, 3-Amino-6-cyclopropyl-4-phenyl-thieno[2,3-b]pyridine-2-carboxylic acid amide], under setting [1], the pEC50 was above 5.30. In the case of `Cc1ccccc1-n1cnc2c(sc3nc(N4CCOCC4)c4c(c32)CC(C)(C)OC4)c1=O` [Compound 100, 2,2-Dimethyl-5-morpholin-4-yl-9-o-tolyl-1,4-dihydro-2H,9H-3-oxa-7-thia-6,9,11-triaza-benzo[c]fluoren-8-one], under setting [1], the negative-log EC50 (pEC50) was 4.60 to 5.30. Regarding `O=c1[nH]cnc2c1sc1nc(N3CCOCC3)c3c(c12)CCCC3` [Compound 182, 5-Morpholin-4-yl-1,2,3,4-tetrahydro-9H-7-thia-6,9,11-triaza-benzo[c]fluoren-8-one], the pEC50 (Vero, 48 h) is below 4.60. In the case of `O=C(Nc1cccc(Cl)c1)c1sc2ncccc2c1OCc1ccc(Cl)c(Cl)c1` [Compound 380, N-(3-chlorophenyl)-3-[(3,4-dichlorophenyl)methoxy]thieno[2,3-b] pyridine-2-carboxamide], the EC50 under setting [2] was below 5 µM.

Consider `Cc1cccc(NC(=O)c2sc3nc(-c4cccs4)ccc3c2N)c1` [Compound 419, 3-amino-N-(m-tolyl)-6-(2-thienyl) thieno[2,3-b]pyridine-2-carboxamide], for which the EC50 (DENV2, Vero, 48 h) was below 5 µM. For `CCOc1cccc(NC(=O)c2sc3nc(-c4ccc(F)cc4)ccc3c2N)c1` [Compound 611, 3-amino-N-(3-ethoxyphenyl)-6-(4-fluorophenyl)thieno[2,3-b]pyridine-2-carboxamide], under setting [2], the EC50 is below 5 µM.

Consider `CCOc1cccc(NC(=O)c2sc3nc4c(cc3c2N)CN(C)CC4)c1` [Compound 108, 3-Amino-6-methyl-5,6,7,8-tetrahydro-thieno[2,3-b][1,6]naphthyridine-2-carboxylic acid (3-ethoxy-phenyl)-amide], for which the pEC50 under setting [1] is 4.60 to 5.30. Turning to `COc1ccc(-c2ccc3c(N)c(C(=O)Nc4cccc(C)c4)sc3n2)cc1OC` [Compound 633, 3-amino-6-(3,4-dimethoxyphenyl)-N-(m-tolyl)thieno[2,3-b]pyridine-2-carboxamide], the EC50 under setting [2] is below 5 µM. Still for that read-out and setting: the result for `COc1cccc(-c2ccc3c(N)c(C(=O)Nc4cc(F)ccc4C)sc3n2)c1` [Compound 565, 3-amino-N-(5-fluoro-2-methyl-phenyl)-6-(3-methoxyphenyl)thieno[2,3-b] pyridine-2-carboxamide] reads below 5 µM; that for `O=C(Nc1ccccc1Cl)c1sc2ncccc2c1O` [Compound 382, N-(2-chlorophenyl)-3-hydroxy-thieno[2,3-b]pyridine-2-carboxamide], 5 to 25 µM.

As for `CC(=O)c1ccc(NC(=O)c2sc3nc(C)cc(C)c3c2N)cc1` [Compound 120, 3-Amino-4,6-dimethyl-thieno[2,3-b]pyridine-2-carboxylic acid (4-acetyl-phenyl)-amide], under setting [1], the pEC50 was below 4.60. As for `Cc1cc(C)c2c(N)c(C(=O)Nc3cccc(C(F)(F)F)c3)sc2n1` [Compound 9, 3-Amino-4,6-dimethyl-thieno[2,3-b]pyridine-2-carboxylic acid (3-trifluoromethyl-phenyl)-amide], the pEC50 (Vero, 48 h) is above 5.30. On to `Nc1c(C(=O)Nc2cc(Cl)cc(Cl)c2)sc2nc(-c3ccc(F)cc3)ccc12` [Compound 622, 3-amino-N-(3,5-dichlorophenyl)-6-(4-fluorophenyl)thieno[2,3-b]pyridine-2-carboxamide], for which the EC50 under setting [2] is below 5 µM.

As for `COCc1cc(C)nc2sc(C(=O)Nc3cc(C)ccc3F)c(N)c12` [Compound 242, 3-Amino-4-methoxymethyl-6-methyl-thieno[2,3-b]pyridine-2-carboxylic acid (2-fluoro-5-methyl-phenyl)-amide], under setting [1], the pEC50 was below 4.60. Same read-out and setting: the result for `C=CCn1cnc2c(sc3nc4c(cc32)COC(C)(C)C4)c1=O` [Compound 202, 2-Allyl-8,8-dimethyl-8,9-dihydro-2H,6H-7-oxa-11-thia-2,4,10-triaza-benzo[b]fluoren-1-one] reads below 4.60.

Take `N=C(Nc1cccc(C(F)(F)F)c1)c1sc2nc(-c3cccs3)ccc2c1N` [Compound 319, 3-amino-6-(2-thienyl)-N-[3-(trifluoromethyl)phenyl]thieno[2,3-b]pyridine-2-carboxamidine]: the EC50 under setting [2] is below 5 µM. Turning to `COc1ccc(NC(=O)c2sc3nc(C)cc(C(F)(F)F)c3c2N)cc1` [Compound 162, 3-Amino-6-methyl-4-trifluoromethyl-thieno[2,3-b]pyridine-2-carboxylic acid (4-methoxy-phenyl)-amide], under setting [1], the pEC50 was below 4.60.

For `CCN1CCCC(NC(=O)c2sc3nc(C)cc(COC)c3c2N)C1` (stereo not drawn) [Compound 147, 3-Amino-4-methoxymethyl-6-methyl-thieno[2,3-b]pyridine-2-carboxylic acid (1-ethyl-piperidin-3-yl)-amide], under setting [1], the pEC50 was below 4.60. `Cc1csc(NC(=O)c2sc3nc(-c4cccs4)ccc3c2N)n1` [Compound 55, 3-Amino-6-thiophen-2-yl-thieno[2,3-b]pyridine-2-carboxylic acid (4-methyl-thiazol-2-yl)amide]: the pEC50 (Vero, 48 h) is above 5.30. `Cc1cc(F)ccc1NC(=O)c1sc2nc3c(cc2c1N)CN(C)CC3` [Compound 265, 3-Amino-6-methyl-5,6,7,8-tetrahydro-thieno[2,3-b][1,6]naphthyridine-2-carboxylic acid (4-fluoro-2-methyl-phenyl)-amide]: the pEC50 under setting [1] is below 4.60.

For `Cn1cnc2c(sc3nc4c(cc32)COC(C)(C)C4)c1=O` [Compound 201, 2,8,8-Trimethyl-8,9-dihydro-2H,6H-7-oxa-11-thia-2,4,10-triaza-benzo[b]fluoren-1-one], the pEC50 (Vero, 48 h) was below 4.60.

Consider `COc1ccc(NC(=O)c2sc3nc4c(cc3c2N)CCCCC4)cc1` [Compound 118, 3-Amino-6,7,8,9-tetrahydro-5H-1-thia-10-aza-cyclohepta[f]indene-2-carboxylic acid (4-methoxy-phenyl)-amide], for which the pEC50 under setting [1] is below 4.60. With `Nc1c(C(=O)Nc2ccc(F)c(Cl)c2)sc2nc(-c3ccc(F)cc3)ccc12` [Compound 613, 3-amino-N-(3-chloro-4-fluoro-phenyl)-6-(4-fluorophenyl)thieno[2,3-b]pyridine-2-carboxamide], the EC50 under setting [2] was below 5 µM. With `Cc1ccc(NC(=O)c2sc3nc(-c4ccc5c(c4)OCO5)ccc3c2N)cc1C` [Compound 528, 3-amino-6-(1,3-benzodioxol-5-yl)-N-(3,4-dimethylphenyl)thieno[2,3-b]pyridine-2-carboxamide], the EC50 under setting [2] is below 5 µM. With `COc1cccc(-c2ccc3c(N)c(C(=O)Nc4ccccc4C)sc3n2)c1` [Compound 521, 3-amino-6-(3-methoxyphenyl)-N-(o-tolyl)thieno[2,3-b]pyridine-2-carboxamide], the EC50 under setting [2] was below 5 µM. In the case of `CC1(C)Cc2c(c(N3CCOCC3)nc3sc4c(c23)N2C(=O)CCC2(C)NC4=O)CO1` (stereo not drawn) [Compound 248, 2,2,9a-Trimethyl-5-(4-morpholinyl)-1,4,9,9a,10,11-hexahydro-2H-pyrano[4″,3″:4′,5′]pyrido[3′,2′:4, 5]thieno[2,3-e]pyrrolo[1,2-a]pyrimidine-8,12-dione], the pEC50 under setting [1] is below 4.60.

The pEC50 is −log10 of the EC50, conventionally taken in molar units. For orientation: EC50 means the midpoint of the concentration-response curve.
